ChEMBL document CHEMBL6120977, “Structure-Affinity-Pharmacokinetics Relationships of Novel 18F-Labeled 1,4-Diazepane Derivatives for Orexin 1 Receptor Imaging” (J Med Chem, 2024)

Assays:
Homo sapiens = species: Homo sapiens; assay: Selectivity ratio of IC50 for recombinant human OX2R extracted from HEK293T cell membrane to IC50 for recombinant human OX1R extracted from HEK293T cell membrane
Orexin receptor type 2 = biological target: T1, Orexin receptor type 2 (Homo sapiens, UniProt O43614); assay: Displacement of [3H]EMPA from recombinant human OX2R extracted from HEK293T membrane by radioligand binding assay; format: cell membranes
T1 sequence (O43614 whole entry): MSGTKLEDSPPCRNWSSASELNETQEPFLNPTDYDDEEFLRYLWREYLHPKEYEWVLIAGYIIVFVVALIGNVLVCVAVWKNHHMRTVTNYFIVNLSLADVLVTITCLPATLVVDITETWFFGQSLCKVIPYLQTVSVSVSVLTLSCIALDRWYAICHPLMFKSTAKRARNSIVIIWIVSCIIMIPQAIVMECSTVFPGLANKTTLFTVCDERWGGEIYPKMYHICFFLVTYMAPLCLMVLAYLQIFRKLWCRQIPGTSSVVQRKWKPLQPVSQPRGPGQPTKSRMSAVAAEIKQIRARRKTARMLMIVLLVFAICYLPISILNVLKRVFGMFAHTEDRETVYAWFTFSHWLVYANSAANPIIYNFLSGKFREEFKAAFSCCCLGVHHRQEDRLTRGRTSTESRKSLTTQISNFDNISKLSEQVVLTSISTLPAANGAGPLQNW

[1] = biological target: T2, Orexin/Hypocretin receptor type 1 (Homo sapiens, UniProt O43613); assay: Displacement of [3H]SB-674042 from recombinant human OX1R extracted from HEK293T membrane by radioligand binding assay; format: cell membranes
T2 sequence (O43613 whole entry): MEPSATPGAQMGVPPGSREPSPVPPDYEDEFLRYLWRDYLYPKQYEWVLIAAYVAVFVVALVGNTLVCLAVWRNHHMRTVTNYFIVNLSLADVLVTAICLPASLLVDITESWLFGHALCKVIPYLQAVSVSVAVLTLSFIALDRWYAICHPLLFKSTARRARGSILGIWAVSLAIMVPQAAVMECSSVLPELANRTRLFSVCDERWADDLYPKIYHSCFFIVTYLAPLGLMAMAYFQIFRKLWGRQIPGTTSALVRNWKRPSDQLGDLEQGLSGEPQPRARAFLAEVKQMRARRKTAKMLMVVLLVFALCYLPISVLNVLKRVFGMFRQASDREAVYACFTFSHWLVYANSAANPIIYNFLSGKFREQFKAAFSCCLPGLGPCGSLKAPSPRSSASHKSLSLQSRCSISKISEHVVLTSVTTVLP

[2] = Biodistribution in male ddY mouse intestine administered intravenously and measured at 10 mins postinjection by gamma counter analysis; format: ADME, organism-based; details: in vivo, iv
[3] = Biodistribution in male ddY mouse brain administered intravenously and measured at 10 mins postinjection by gamma counter analysis; format: ADME, organism-based; details: in vivo, iv
[4] = Biodistribution in male ddY mouse heart administered intravenously and measured at 2 mins postinjection by gamma counter analysis; format: ADME, organism-based; details: in vivo, iv
[5] = Biodistribution in male ddY mouse bone administered intravenously and measured at 30 mins postinjection by gamma counter analysis; format: ADME, organism-based, Bone element; details: in vivo, iv, 0.5 h
[6] = Biodistribution in male ddY mouse liver administered intravenously and measured at 30 mins postinjection by gamma counter analysis; format: ADME, organism-based; details: in vivo, iv, 0.5 h
[7] = Biodistribution in male ddY mouse kidney administered intravenously and measured at 10 mins postinjection by gamma counter analysis; format: ADME, organism-based; details: in vivo, iv
[8] = Biodistribution in male ddY mouse pancreas administered intravenously and measured at 60 mins postinjection by gamma counter analysis; format: ADME, organism-based; details: in vivo, iv, 1 h
[9] = Biodistribution in male ddY mouse intestine administered intravenously and measured at 60 mins postinjection by gamma counter analysis; format: ADME, organism-based; details: in vivo, iv, 1 h
[10] = Biodistribution in male ddY mouse kidney administered intravenously and measured at 30 mins postinjection by gamma counter analysis; format: ADME, organism-based; details: in vivo, iv, 0.5 h
[11] = Biodistribution in male ddY mouse stomach administered intravenously and measured per organ at 2 mins postinjection by gamma counter analysis; format: ADME, organism-based; details: in vivo, iv
[12] = Drug accumulation in male CD Sprague-Dawley rat amygdala assessed as increase in radioactivity at 40.1 kBq/ml incubated for 1 hrs in presence of BTF by autoradiography analysis; format: ADME, tissue-based
[13] = Biodistribution in male ddY mouse pancreas administered intravenously and measured at 2 mins postinjection by gamma counter analysis; format: ADME, organism-based; details: in vivo, iv
[14] = Biodistribution in male ddY mouse stomach administered intravenously and measured per organ at 10 mins postinjection by gamma counter analysis; format: ADME, organism-based; details: in vivo, iv
[15] = Biodistribution in male ddY mouse lung administered intravenously and measured at 2 mins postinjection by gamma counter analysis; format: ADME, organism-based; details: in vivo, iv
[16] = Biodistribution in male ddY mouse spleen administered intravenously and measured at 30 mins postinjection by gamma counter analysis; format: ADME, organism-based; details: in vivo, iv, 0.5 h
[17] = Biodistribution in male ddY mouse bone administered intravenously and measured at 2 mins postinjection by gamma counter analysis; format: ADME, organism-based, Bone element; details: in vivo, iv
[18] = Biodistribution in male ddY mouse blood administered intravenously and measured at 30 mins postinjection by gamma counter analysis; format: ADME, organism-based; details: in vivo, iv, 0.5 h
[19] = Biodistribution in male ddY mouse spleen administered intravenously and measured at 2 mins postinjection by gamma counter analysis; format: ADME, organism-based; details: in vivo, iv
[20] = Biodistribution in male ddY mouse stomach administered intravenously and measured per organ at 30 mins postinjection by gamma counter analysis; format: ADME, organism-based; details: in vivo, iv, 0.5 h
[21] = Biodistribution in male ddY mouse blood administered intravenously and measured at 60 mins postinjection by gamma counter analysis; format: ADME, organism-based; details: in vivo, iv, 1 h
[22] = Biodistribution in male ddY mouse liver administered intravenously and measured at 2 mins postinjection by gamma counter analysis; format: ADME, organism-based; details: in vivo, iv
[23] = Drug accumulation in male CD Sprague-Dawley rat hypothalamus assessed as increase in radioactivity at 40.1 kBq/ml incubated for 1 hrs in presence of BTF by autoradiography analysis; format: ADME, tissue-based
[24] = Biodistribution in male ddY mouse spleen administered intravenously and measured at 60 mins postinjection by gamma counter analysis; format: ADME, organism-based; details: in vivo, iv, 1 h
[25] = Biodistribution in male ddY mouse brain administered intravenously and measured at 60 mins postinjection by gamma counter analysis; format: ADME, organism-based; details: in vivo, iv, 1 h
[26] = Biodistribution in male ddY mouse heart administered intravenously and measured at 10 mins postinjection by gamma counter analysis; format: ADME, organism-based; details: in vivo, iv
[27] = Biodistribution in male ddY mouse bone administered intravenously and measured at 60 mins postinjection by gamma counter analysis; format: ADME, organism-based, Bone element; details: in vivo, iv, 1 h
[28] = Biodistribution in male ddY mouse heart administered intravenously and measured at 60 mins postinjection by gamma counter analysis; format: ADME, organism-based; details: in vivo, iv, 1 h
[29] = Biodistribution in male ddY mouse blood administered intravenously and measured at 2 mins postinjection by gamma counter analysis; format: ADME, organism-based; details: in vivo, iv
[30] = Biodistribution in male ddY mouse bone administered intravenously and measured at 10 mins postinjection by gamma counter analysis; format: ADME, organism-based, Bone element; details: in vivo, iv
[31] = Biodistribution in male ddY mouse lung administered intravenously and measured at 10 mins postinjection by gamma counter analysis; format: ADME, organism-based; details: in vivo, iv
[32] = Biodistribution in male ddY mouse brain administered intravenously and measured at 2 mins postinjection by gamma counter analysis; format: ADME, organism-based; details: in vivo, iv
[33] = Biodistribution in male ddY mouse intestine administered intravenously and measured at 2 mins postinjection by gamma counter analysis; format: ADME, organism-based; details: in vivo, iv
[34] = Biodistribution in male ddY mouse liver administered intravenously and measured at 10 mins postinjection by gamma counter analysis; format: ADME, organism-based; details: in vivo, iv
[35] = Biodistribution in male ddY mouse brain administered intravenously and measured at 30 mins postinjection by gamma counter analysis; format: ADME, organism-based; details: in vivo, iv, 0.5 h
[36] = Biodistribution in male ddY mouse blood administered intravenously and measured at 10 mins postinjection by gamma counter analysis; format: ADME, organism-based; details: in vivo, iv
[37] = Biodistribution in male ddY mouse stomach administered intravenously and measured per organ at 60 mins postinjection by gamma counter analysis; format: ADME, organism-based; details: in vivo, iv, 1 h
[38] = Drug uptake in male ddY mouse hypothalamus at 407 kBq, iv measured for 5 to 10 mins by PET/CT imaging analysis; format: ADME, organism-based; details: in vivo, time 5-10 min
[39] = Biodistribution in male ddY mouse pancreas administered intravenously and measured at 30 mins postinjection by gamma counter analysis; format: ADME, organism-based; details: in vivo, iv, 0.5 h
[40] = Biodistribution in male ddY mouse pancreas administered intravenously and measured at 10 mins postinjection by gamma counter analysis; format: ADME, organism-based; details: in vivo, iv
[41] = Biodistribution in male ddY mouse spleen administered intravenously and measured at 10 mins postinjection by gamma counter analysis; format: ADME, organism-based; details: in vivo, iv
[42] = Biodistribution in male ddY mouse heart administered intravenously and measured at 30 mins postinjection by gamma counter analysis; format: ADME, organism-based; details: in vivo, iv, 0.5 h
[43] = Biodistribution in male ddY mouse kidney administered intravenously and measured at 2 mins postinjection by gamma counter analysis; format: ADME, organism-based; details: in vivo, iv
[44] = Biodistribution in male ddY mouse lung administered intravenously and measured at 60 mins postinjection by gamma counter analysis; format: ADME, organism-based; details: in vivo, iv, 1 h
[45] = Drug accumulation in male CD Sprague-Dawley rat cortex assessed as increase in radioactivity at 40.1 kBq/ml incubated for 1 hrs in presence of BTF by autoradiography analysis; format: ADME, tissue-based
[46] = Biodistribution in male ddY mouse lung administered intravenously and measured at 30 mins postinjection by gamma counter analysis; format: ADME, organism-based; details: in vivo, iv, 0.5 h
[47] = Biodistribution in male ddY mouse intestine administered intravenously and measured at 30 mins postinjection by gamma counter analysis; format: ADME, organism-based; details: in vivo, iv, 0.5 h
[48] = Biodistribution in male ddY mouse liver administered intravenously and measured at 60 mins postinjection by gamma counter analysis; format: ADME, organism-based; details: in vivo, iv, 1 h
[49] = Drug uptake in male ddY mouse brain at 41 kBq, iv pretreated with BTF for 10 mins followed by compound administration and measured after 10 mins by gamma counter analysis; format: ADME, organism-based; details: in vivo
[50] = Drug uptake in male ddY mouse locus ceruleus at 407 kBq, iv measured for 5 to 10 mins by PET/CT imaging analysis; format: ADME, organism-based; details: in vivo, time 5-10 min
[51] = Biodistribution in male ddY mouse kidney administered intravenously and measured at 60 mins postinjection by gamma counter analysis; format: ADME, organism-based; details: in vivo, iv, 1 h

SMILES: CC[C@H](C)[C@H]1CN(c2nc3cc(Cl)ccc3o2)CCCN1C(=O)c1cc(C)ccc1-n1nccn1
- Ratio IC50 (Homo sapiens): 75
- IC50 (Orexin receptor type 2): 54 nM
- IC50 [1]: 0.72 nM

SMILES: C[C@H]1CN(c2nc3ccccc3s2)CCCN1C(=O)c1cc([18F])ccc1-n1nccn1
- Drug uptake [2]: 15.7 % ID/g
- Drug uptake [3]: 0.82 % ID/g
- Drug uptake [4]: 7.48 % ID/g
- Drug uptake [5]: 1.77 % ID/g
- Drug uptake [6]: 17 % ID/g
- Drug uptake [7]: 4.99 % ID/g
- Drug uptake [8]: 0.61 % ID/g
- Drug uptake [9]: 34.5 % ID/g
- Drug uptake [10]: 3.99 % ID/g
- Drug uptake [11]: 1.4 %ID
- Drug uptake [12]: Not_active
- Drug uptake [13]: 7.16 % ID/g
- Drug uptake [14]: 2.16 %ID
- Drug uptake [15]: 8.48 % ID/g
- Drug uptake [16]: 0.66 % ID/g
- Drug uptake [17]: 2.69 % ID/g
- Drug uptake [18]: 1.74 % ID/g
- Drug uptake [19]: 3.26 % ID/g
- Drug uptake [20]: 2.39 %ID
- Drug uptake [21]: 0.64 % ID/g
- Drug uptake [22]: 16.2 % ID/g
- Drug uptake [23]: Not_active
- Drug uptake [24]: 0.29 % ID/g
- Drug uptake [25]: 0.07 % ID/g
- Drug uptake [26]: 3.02 % ID/g
- Drug uptake [27]: 1.87 % ID/g
- Drug uptake [28]: 0.54 % ID/g
- Drug uptake [29]: 6.02 % ID/g
- Drug uptake [30]: 1.4 % ID/g
- Drug uptake [31]: 4.13 % ID/g
- Drug uptake [32]: 2.98 % ID/g
- Drug uptake [33]: 4.74 % ID/g
- Drug uptake [34]: 28.6 % ID/g
- Drug uptake [35]: 0.17 % ID/g
- Drug uptake [36]: 3.2 % ID/g
- Drug uptake [37]: 1.05 %ID
- Drug uptake [38]: Active
- Drug uptake [39]: 0.92 % ID/g
- Drug uptake [40]: 3.1 % ID/g
- Drug uptake [41]: 1.87 % ID/g
- Drug uptake [42]: 1.51 % ID/g
- Drug uptake [43]: 9.76 % ID/g
- Drug uptake [44]: 1.17 % ID/g
- Drug uptake [45]: Not_active
- Drug uptake [46]: 2.2 % ID/g
- Drug uptake [47]: 28 % ID/g
- Drug uptake [48]: 10.8 % ID/g
- Drug uptake [49]: Not_active
- Drug uptake [50]: Active
- Drug uptake [51]: 1.84 % ID/g
